Measurements from BindingDB's records for doi:10.7270/Q2W094D4 (Burnham Center For Chemical Genomics, 2011).
pIC50: −log10 of the molar value.

What follows are compounds tested against Hexokinase HKDC1 [W721R] (Homo sapiens, UniProt Q2TB90, W721R) (assay: HKDC1 hexokinase inhibitors, dose response, biochemical, W721R variant (AID 504729)).
Hexokinase HKDC1 [W721R], sequence (Q2TB90 whole entry W721R): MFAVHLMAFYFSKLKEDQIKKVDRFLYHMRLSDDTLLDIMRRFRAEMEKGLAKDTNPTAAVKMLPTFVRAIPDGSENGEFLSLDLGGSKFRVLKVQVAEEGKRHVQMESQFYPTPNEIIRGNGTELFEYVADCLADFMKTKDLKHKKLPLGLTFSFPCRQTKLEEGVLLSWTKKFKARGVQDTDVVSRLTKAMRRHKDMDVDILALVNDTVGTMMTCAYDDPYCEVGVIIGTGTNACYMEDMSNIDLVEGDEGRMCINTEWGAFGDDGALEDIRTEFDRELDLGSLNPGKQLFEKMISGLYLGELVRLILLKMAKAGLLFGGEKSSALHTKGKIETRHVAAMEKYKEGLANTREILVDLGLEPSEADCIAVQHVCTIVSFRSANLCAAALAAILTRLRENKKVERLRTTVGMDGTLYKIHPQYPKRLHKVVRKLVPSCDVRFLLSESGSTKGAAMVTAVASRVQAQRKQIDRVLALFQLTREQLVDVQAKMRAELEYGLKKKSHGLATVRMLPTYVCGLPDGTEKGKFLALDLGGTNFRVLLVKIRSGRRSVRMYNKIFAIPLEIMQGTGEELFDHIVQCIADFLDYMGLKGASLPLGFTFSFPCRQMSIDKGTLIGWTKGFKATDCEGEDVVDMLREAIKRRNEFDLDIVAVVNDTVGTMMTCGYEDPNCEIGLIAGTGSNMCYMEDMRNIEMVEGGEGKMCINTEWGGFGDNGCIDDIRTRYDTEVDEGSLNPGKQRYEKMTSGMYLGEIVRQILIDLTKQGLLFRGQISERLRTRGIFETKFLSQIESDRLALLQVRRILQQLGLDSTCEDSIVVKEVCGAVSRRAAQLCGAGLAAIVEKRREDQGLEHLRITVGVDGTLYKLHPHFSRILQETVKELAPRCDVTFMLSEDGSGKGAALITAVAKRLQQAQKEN

Row | SMILES | pIC50
1 | Cc1ccc(/N=C/C2=CC(Cc3ccccc3Cl)C=C([N+](=O)[O-])C2=O)c(O)c1 (stereo not drawn) | 4.55
2 | O=C(/C=C/c1ccco1)NCC(=O)NNC1=c2ccccc2=NC1=O [MLS001075666] | 4.60
3 | CC(Nc1cc(O)c2cccnc2c1O)C(=O)c1ccccc1 (stereo not drawn) | 4.73
4 | Oc1ccc(CN=Nc2ncc(Br)cn2)c(O)c1 | 5.77
5 | COC1=CC(/C=C(\C#N)c2nc3ccc(C)cc3[nH]2)C=C([N+](=O)[O-])C1=O (stereo not drawn) [(2Z,3E)-3-(3-methoxy-5-nitro-4-oxocyclohexa-2,5-dien-1-ylidene)-2-(5-methyl-1,3-dihydrobenzimidazol-2-ylidene)propanenitrile] | 4.79
6 | COc1ccc(Cn2c(O)c3[nH]cccc-3c2=O)cc1 | 4.67

More lines, now with the values ahead:

Row | pIC50 | SMILES
7 | 5.65 | Cc1[nH]c2c(=O)c3c(c(=O)c=2[nH]c1C)C1C=CC3CC1 [MLS002701599]
8 | 5.66 | C=c1c(NC(C)=O)c(O)c2nc3n(c2c1O)CCC=3OC(=O)COC [SMR001565176]
9 | 5.21 | O=C1C=CC(CN=Nc2ccc([N+](=O)[O-])cn2)C(O)=C1 (stereo not drawn) [SMR001527138]
10 | 5.10 | Oc1c(Cl)c(N=CCc2ccccc2)c(O)c2ccccc12 [MLS002608293]
11 | 4.81 | Cc1cccc2c1=NC(=O)C=2NNC(=O)c1ccc(NS(=O)(=O)c2cccs2)cc1 [SMR001246714]
12 | 4.94 | Cc1ccc(Nc2c3[nH]cccc-3c(=O)n2-c2ccccc2C)cc1C [SMR000028201]
13 | 4.76 | N#CC(C(=O)CCl)c1nc2c(s1)CCc1ccccc1-2 (stereo not drawn) [MLS001171530]
